Patent US20230172971A1, “ANTIBIOTIC AND ANTI-INFLAMMATORY COMPOSITIONS AND METHODS OF USE” (priority 2020, published 2023)
≈ marks a conversion by molar mass, not a printed value. Where two headings read alike, the source gives them in different places.

Legend:
MRSA OU6 [1] = experiment: MicroScan Walkaway MIC panel, MRSA OU6; format: cell-based, Staphylococcus aureus; details: for MIC: Staphylococcus aureus
Excerpt: (§1) The multi-drug resistance characteristics of the clinical isolates was confirmed using the Beckman Coulter MicroScan Walkaway™ 96plus with the PC33 gram positive panel. The MIC values are listed below.

MRSA OU11 [2] = experiment: MicroScan Walkaway MIC panel, MRSA OU11; format: cell-based, Staphylococcus aureus; details: for MIC: Staphylococcus aureus
Excerpt: as §1

[3] = system: Pseudomonas aeruginosa strain BAA-47; experiment: Checkerboard assay azithromycin + 600-Da BPEI, P. aeruginosa BAA-47; format: cell-based
Description: (§2) Checkerboard assays were conducted to identify synergy between BPEI and antibiotics against bacteria. Serial dilutions of antimicrobial agents (BPEI and antibiotic solutions) were added to a 96-well microtiter plate with 100 μL CAMHB per well. Untreated control and positive control (5% bleach) were also conducted. Bacterial inoculation (5×10^5 CFU/mL) from an overnight culture was added to the plate (1 μL/well) and incubated at 37° C. for 20 hr. The change in optical density at 600 nm (ΔOD600) was measured using a Tecan Infinite M20 plate reader immediately after inoculation Minimum inhibitory concentration (MIC) of each drug is determined as the lowest concentration that inhibited cell growth (ΔOD600<0.05). Fractional inhibitory concentration index (FICI) and synergistic effects are determined using EUCAST guidelines: synergy (FICI≤0.5), additivity (0.5<FICI<1), and indifference (FICI>1). Each assay was done in triplicate.

PA OU19 [4] = experiment: MicroScan Walkaway MIC panel, PA OU19; format: cell-based, P. aeruginosa
K. pneumoniae BAA-2146 = experiment: Checkerboard assay, CRE K. pneumoniae BAA-2146 (NDM-1); format: cell-based, Klebsiella pneumoniae; details: NDM-1 strain; over the susceptibility breakpoint
Description: (§3) Checkerboard assays were used to determine the synergistic effect between PEG350-BPEI or 600 Da BPEI and antibiotics against drug resistant strains growing in cation-adjusted Mueller-Hinton broth (CAMHB). […] Cells were grown at 37° C. The change in OD600 (optical density at 600 nm) was measured and recorded after 24 hr of treatment. Each checkerboard trial was done in triplicate using sterile Greiner CellStar™ flat bottom polystyrene plates, catalog #655180.

E. coli BAA-2452 = experiment: Checkerboard assay, CRE E. coli BAA-2452 (NDM-1); format: cell-based, Escherichia coli; details: NDM-1 strain; over the susceptibility breakpoint
Description: as §3

[5] = system: K. pneumoniae BAA-1705(blaKPC+/blaNDM−); experiment: Checkerboard assay, CRE K. pneumoniae BAA-1705 (blaKPC+/blaNDM-); format: cell-based, Klebsiella pneumoniae; details: FIGS. 11A and 11C
Description: as §3

[6] = system: HEKa cells (primary human epithelial keratinocytes); experiment: Cytokine release (IL-8, IL-6, TNF-alpha) by HEKa cells, Quantikine ELISA; format: cell-based; details: PG or LPS 5 μg/mL, 24 hr; for TNF-α concentration released by HEKa cells: untreated control <10; for IL-6 concentration released by HEKa cells: untreated control <50
Description: (§4) Materials included HEKa cells (primary human epithelial keratinocytes; Invitrogen), Epilife Medium and growth supplement (Invitrogen), lipopolysaccharides from Escherichia coli O111:B4 (Sigma), peptidoglycan from Staphylococcus aureus (Sigma), and Human (IL-8/CXCL8, IL-6, TNF-alpha) Quantikine ELISA Kits (R&D). HEKa cells were seeded in T-75 tissue culture flasks with Epilife media supplemented with human keratinocyte growth supplement 100 ug/mL and 100 U/mL of pen/strep and incubated at 37° C. in a CO2 incubator. Fresh media was replaced every 2 days. Until the cell confluence reach 80-90%, they were split into a new passage. To avoid cell senescence, all experiments were performed with cells at passage 3-7. HEKa cells were cultured in a new 24-well plate until 80-90% confluence (total V=1 mL/well). […] The cell media was collected in 1.5 mL Eppendorf microtubes and stored at −20° C. until ELISA assays were performed. Concentrations of IL-8, IL-6, TNF-α cytokines released into the media were quantified followed the instructions of Quantikine Colorimetric ELISA assay kits (R&D Systems). Absorbance was measured at 450 nm and 570 nm. Final corrected absorbance was the subtraction […].
as §4, with “HEKa” for “Materials included HEKa cells (primary human epithelial keratinocytes; Invitrogen), Epilife Medium and growth supplement (Invitrogen), lipopolysaccharides from Escherichia coli O111:B4 (Sigma), peptidoglycan from Staphylococcus aureus (Sigma), and Human (IL-8/CXCL8, IL-6, TNF-alpha) Quantikine ELISA Kits (R&D). HEKa”, “senescent,” for “senescence,”, “volume=1” for “V=1”, “IL-8 cytokine” for “IL-8, IL-6, TNF-α cytokines”

MRSA OU6 [7] = experiment: Checkerboard assay erythromycin + 600-Da BPEI, MRSA OU6; format: cell-based, Staphylococcus aureus; details: for MIC Antibiotic: MRSA OU6, antibiotic alone
Description: as §2

MRSA OU11 [8] = experiment: Checkerboard assay erythromycin + 600-Da BPEI, MRSA OU11; format: cell-based, Staphylococcus aureus; details: for MIC Antibiotic: MRSA OU11, antibiotic alone
Description: as §2

PA OU19 [9] = experiment: Checkerboard assay erythromycin + 600-Da BPEI, PA OU19; format: cell-based, P. aeruginosa
Description: as §2

[10] = MRSA OU6, MicroScan, read-out: MIC
[11] = MRSA OU11, MicroScan, read-out: MIC
[12] = Pseudomonas aeruginosa, read-out: MIC
[13] = MRSA OU6, erythromycin + 600-Da BPEI
[14] = MRSA OU11, erythromycin + 600-Da BPEI
[15] = PA OU19, erythromycin + 600-Da BPEI

Molecule: CCC[C@@H]1C[C@@H](C(=O)N[C@@H]([C@H]2O[C@H](SC)[C@H](O)[C@@H](O)[C@H]2O)[C@H](C)Cl)N(C)C1 [clindamycin]
- MIC (MRSA OU6 [1]; [10]): > 4 µg/mL
- MIC (MRSA OU11 [2]; [11]): > 4 µg/mL

Molecule: CN[C@H](CC(C)C)C(=O)N[C@H]1C(=O)N[C@@H](CC(N)=O)C(=O)N[C@H]2C(=O)N[C@H]3C(=O)N[C@H](C(=O)N[C@H](C(=O)O)c4cc(O)cc(O)c4-c4cc3ccc4O)[C@H](O)c3ccc(c(Cl)c3)Oc3cc2cc(c3O[C@@H]2O[C@H](CO)[C@@H](O)[C@H](O)[C@H]2O[C@H]2C[C@](C)(N)[C@H](O)[C@H](C)O2)Oc2ccc(cc2Cl)[C@H]1O [vancomycin]
- susceptibility interpretation (MRSA OU6 [1]; MRSA OU6, MicroScan): susceptible
- MIC (MRSA OU6 [1]; MRSA): 2 µg/mL (≈ 1.38 µM)
- susceptibility interpretation (MRSA OU11 [2]; MRSA OU11, MicroScan): susceptible
- MIC (MRSA OU11 [2]; MRSA): 1 µg/mL (≈ 0.69 µM)

Molecule: CC[C@H]1OC(=O)[C@H](C)[C@@H](O[C@H]2C[C@@](C)(OC)[C@@H](O)[C@H](C)O2)[C@H](C)[C@@H](O[C@@H]2O[C@H](C)C[C@H](N(C)C)[C@H]2O)[C@](C)(O)C[C@@H](C)CN(C)[C@H](C)[C@@H](O)[C@]1(C)O [azithromycin]
- growth inhibition by the combination with 600-Da BPEI [3]: inhibits growth

Molecule: gentamicin
- susceptibility interpretation (MRSA OU6 [1]; MRSA OU6, MicroScan): susceptible
- susceptibility interpretation (MRSA OU11 [2]; MRSA OU11, MicroScan): susceptible
- MIC (PA OU19 [4]): 4 µg/mL
- susceptibility interpretation (PA OU19 [4]): susceptible

Molecule: C[C@@H](O)[C@H]1C(=O)N2C(C(=O)O)=C(SCCN=CN)C[C@H]12 [imipenem]
- MIC of the carbapenem without potentiator (K. pneumoniae BAA-2146): > 2 µg/mL
- MIC of the carbapenem without potentiator (E. coli BAA-2452): > 2 µg/mL

Molecule: CC(=O)NC[C@H]1CN(c2ccc(N3CCOCC3)c(F)c2)C(=O)O1 [linezolid]
- susceptibility interpretation (MRSA OU6 [1]; MRSA OU6, MicroScan): susceptible
- MIC (MRSA OU6 [1]; [10]): 2 µg/mL (≈ 5.93 µM)
- susceptibility interpretation (MRSA OU11 [2]; MRSA OU11, MicroScan): susceptible
- MIC (MRSA OU11 [2]; [11]): 2 µg/mL (≈ 5.93 µM)

Molecule: C[C@@H](O)[C@H]1C(=O)N2C(C(=O)O)=C(S[C@@H]3CN[C@H](C(=O)N(C)C)C3)[C@H](C)[C@H]12 [meropenem]
- MIC of the carbapenem without potentiator (K. pneumoniae BAA-2146): > 8 µg/mL
- MIC of the carbapenem without potentiator (E. coli BAA-2452): > 8 µg/mL
- susceptibility of the strain to the carbapenem [5]: resistant
- susceptibility interpretation (PA OU19 [4]): resistant
- MIC (PA OU19 [4]; [12]): 8 µg/mL (≈ 20.9 µM)

Molecule: CCCCCCCCCC(=O)N[C@@H](Cc1c[nH]c2ccccc12)C(=O)N[C@H](CC(N)=O)C(=O)N[C@@H](CC(=O)O)C(=O)N[C@@H]1C(=O)NCC(=O)N[C@@H](CCCN)C(=O)N[C@@H](CC(=O)O)C(=O)N[C@H](C)C(=O)N[C@@H](CC(=O)O)C(=O)NCC(=O)N[C@H](CO)C(=O)N[C@@H]([C@H](C)CC(=O)O)C(=O)N[C@@H](CC(=O)c2ccccc2N)C(=O)O[C@@H]1C [daptomycin]
- susceptibility interpretation (MRSA OU6 [1]; MRSA OU6, MicroScan): susceptible
- MIC (MRSA OU6 [1]; [10]): ≤ 0.5 µg/mL
- susceptibility interpretation (MRSA OU11 [2]; MRSA OU11, MicroScan): susceptible
- MIC (MRSA OU11 [2]; [11]): ≤ 0.5 µg/mL

Molecule: lipopolysaccharide [LPS]
- TNF-α concentration released by HEKa cells [6]: ~30 pg/mL
- IL-6 concentration released by HEKa cells [6]: ~350 pg/mL

Molecule: CC(C)(O/N=C(\C(=O)N[C@@H]1C(=O)N2C(C(=O)[O-])=C(C[n+]3ccccc3)CS[C@H]12)c1csc(N)n1)C(=O)O [ceftazidime]
- susceptibility interpretation (PA OU19 [4]): resistant
- MIC (PA OU19 [4]; [12]): 16 µg/mL (≈ 29.3 µM)

Molecule: NC[C@H]1O[C@H](O[C@H]2[C@H](O)[C@@H](O[C@H]3O[C@H](CO)[C@@H](O)[C@H](N)[C@H]3O)[C@H](N)C[C@@H]2N)[C@H](N)C[C@@H]1O [tobramycin]
- susceptibility interpretation (PA OU19 [4]): susceptible
- MIC (PA OU19 [4]; [12]): 4 µg/mL (≈ 8.56 µM)

Molecule: peptidoglycan [PG]
- TNF-α concentration released by HEKa cells [6]: ~30 pg/mL
- IL-6 concentration released by HEKa cells [6]: ~350 pg/mL

Molecule: CN(C)[C@@H]1C(O)=C(C(N)=O)C(=O)[C@@]2(O)C(O)=C3C(=O)c4c(O)cccc4[C@@](C)(O)[C@H]3C[C@@H]12 [tetracycline]
- MIC (MRSA OU6 [1]; [10]): ≤ 4 µg/mL
- MIC (MRSA OU11 [2]; [11]): ≤ 4 µg/mL

Molecule: C[C@H]1[C@H](NC(=O)/C(=N\OC(C)(C)C(=O)O)c2csc(N)n2)C(=O)N1S(=O)(=O)O [aztreonam]
- susceptibility interpretation (PA OU19 [4]): resistant
- MIC (PA OU19 [4]; [12]): 16 µg/mL (≈ 36.7 µM)

Molecule: CO/N=C(\C(=O)N[C@@H]1C(=O)N2C(C(=O)[O-])=C(C[N+]3(C)CCCC3)CS[C@H]12)c1csc(N)n1 [cefepime]
- susceptibility interpretation (PA OU19 [4]): resistant
- MIC (PA OU19 [4]; [12]): 16 µg/mL (≈ 33.3 µM)

Molecule: CC[C@H]1OC(=O)[C@H](C)[C@@H](O[C@H]2C[C@@](C)(OC)[C@@H](O)[C@H](C)O2)[C@H](C)[C@@H](O[C@@H]2O[C@H](C)C[C@H](N(C)C)[C@H]2O)[C@](C)(O)C[C@@H](C)C(=O)[C@H](C)[C@@H](O)[C@]1(C)O [erythromycin]
- susceptibility interpretation (MRSA OU6 [1]; MRSA OU6, MicroScan): resistant
- MIC (MRSA OU6 [1]; [10]): > 4 µg/mL
- susceptibility interpretation (MRSA OU11 [2]; MRSA OU11, MicroScan): resistant
- MIC (MRSA OU11 [2]; [11]): > 4 µg/mL
- MIC Antibiotic (MRSA OU6 [7]): over 2000 μg/mL
- MIC Antibiotic (MRSA OU6 [7]; listed as Erythromycin): >2000 µg/mL
- FICI (MRSA OU6 [7]; [13]): 0.26
- Outcome (MRSA OU6 [7]; [13]): Synergy
- MIC Antibiotic with 16 μg/ml BPEI (MRSA OU6 [7]; MRSA OU6, with 16 μg/ml 600-Da BPEI): 8 µg/mL
- MIC Antibiotic (MRSA OU11 [8]): over 2000 μg/mL
- MIC Antibiotic (MRSA OU11 [8]; listed as Erythromycin): >2000 µg/mL
- FICI (MRSA OU11 [8]; [14]): 0.31
- Outcome (MRSA OU11 [8]; [14]): Synergy
- FICI (PA OU19 [9]; [15]): 0.26
- Outcome (PA OU19 [9]; [15]): Synergy
- MIC Antibiotic with 16 μg/ml BPEI (PA OU19 [9]; PA OU19, with 16 μg/ml 600-Da BPEI): 2 µg/mL

Molecule: Cc1onc(-c2ccccc2)c1C(=O)N[C@@H]1C(=O)N2[C@@H]1SC(C)(C)[C@@H]2C(=O)O [oxacillin]
- susceptibility interpretation (MRSA OU6 [1]; MRSA OU6, MicroScan): resistant
- MIC (MRSA OU6 [1]; [10]): > 2 µg/mL
- susceptibility interpretation (MRSA OU11 [2]; MRSA OU11, MicroScan): resistant
- MIC (MRSA OU11 [2]; [11]): > 2 µg/mL
